Assay results from patent US20230310478A1, “METHODS AND COMPOSITIONS FOR THE TREATMENT OF PULMONARY HYPERTENSION AND CANCER” (Ann and Robert H. Lurie Children's Hospital of Chicago, priority 2020, published 2023).
“Also recorded” adds a separate entry of the source. Structures can show the parent of a compound that is named as a salt. Each block holds one molecule with its values, some of them ahead of it.

Experiments:
[1] = target: T1, HIF-2α (Homo sapiens, UniProt Q99814); assay: HRE-luciferase activity in stable HRE/luciferase-expressing 786-O cells; assay type: cell-based; conditions: for HRE luciferase activity (HIF activity), result in words: stable HRE-luciferase 786-O cells
T1 construct: endogenous in cells; host or cells: 786-O cells stably expressing HRE-luciferase
Procedure: HRE, hypoxia-responsive element.
FIG. 5. […] PBS was used in CTL and compound C76 was used as a positive control. **, P<0.01, ****, P<0.0001. Student t test.
FIG. 7. Ethacridine is a potent HIF-α inhibitor. To validate the inhibitory effect of Ethacridine, stable 786-O cells expressing HRE-Luciferase was treated with Ethacridine at the indicated concentration for 24 h. Luciferase activity was then measured and normalized to control vehicle (DMSO) group. Ethacridine at 5 uM could inhibited approximately 80% HRE activity, i.e., HIF activity. Data are expressed as mean±SD. […]

[2] = system: 786-O cells; assay: control SV40-luciferase activity in 786-O cells (toxicity); assay type: cell-based, human; conditions: for SV40-Luc (of control): 2.5 uM; for control SV40 luciferase activity (cell toxicity), result in words: quinidine at the doses tested
[3] = system: MCT-challenged rats; assay: monocrotaline (MCT) rat model of pulmonary hypertension; assay type: in vivo
Procedure: (A) Representative micrographs of Russel-Movat pentachrome staining of MCT-rat lungs. […] (B) Quantification of PA wall thickness in MCT rat lungs. […] Lung sections were immunostained with anti-α-smooth muscle actin (α-SMA) antibody (red); nuclei were counterstained with DAPI (blue). […] Scale bars: 50 μm.
FIG. 6. […] At 14 days post-MCT challenge, the rats were treated with HEAQ (20 mg/kg, oral, daily) or PBS for another 14 days.
RVSP was measured (A) and RV hypertrophy was calculated (B) at 28 days post-treatment. […] One-way ANOVA.
At 14 days post-MCT challenge, the rats were treated with Propantheline (1.0 mg/kg, i.p., twice a day) and Ethacridine (7.5 mg/kg, i.p., twice a day) (P+E) at the same time for 14 days. A separate group of rats was treated with either Propantheline (2.5 mg/kg, i.p., twice a day). RVSP was measured (A) and RV hypertrophy was calculated (B) at 28 days post-treatment. […] One-way ANOVA.

[4] = target: human ether-à-go-go-related gene (hERG) channel (Homo sapiens, UniProt Q12809); conditions: from reference 21; read-out: hERG channel inhibition IC50; cited from earlier work
[5] = system: SDF1; assay: quantitative RT-PCR of PH-causing genes in DMOG-treated HLMVECs: SDF1; conditions: 24 h, mean±SD
Procedure: (§1) Regarding Table 2, human lung microvascular endothelial cells (ECs) were treated with 2-Dimethyloxalylglycine (DMOG, PHD inhibitor) and either vehicle (DMSO) or various HIF inhibitors for 24 h. RNA was isolated for quantitative RT-PCR analysis.

[6] = system: PDGF-B; assay: quantitative RT-PCR of PH-causing genes in DMOG-treated HLMVECs: PDGF-B; assay type: cell-based, human; conditions: 24 h, mean±SD
Procedure: as §1

[7] = system: Endothelin-1; assay: quantitative RT-PCR of PH-causing genes in DMOG-treated HLMVECs: Endothelin-1; assay type: cell-based, human; conditions: 24 h, mean±SD
Procedure: as §1

[8] = system: HIF-2α; assay: Western blotting of HIF-2α protein level; assay type: cell-based
[9] = MCT rat lungs, quinidine s.c. osmotic pump 10-12 mg/kg/day, 14 days
[10] = MCT rats, quinidine s.c. osmotic pump 10-12 mg/kg/day, 14 days
[11] = MCT rats, quinidine s.c. osmotic pump 10-12 mg/kg/day, 14 days from 2 weeks post-MCT

T1 sequence (Q99814 whole entry): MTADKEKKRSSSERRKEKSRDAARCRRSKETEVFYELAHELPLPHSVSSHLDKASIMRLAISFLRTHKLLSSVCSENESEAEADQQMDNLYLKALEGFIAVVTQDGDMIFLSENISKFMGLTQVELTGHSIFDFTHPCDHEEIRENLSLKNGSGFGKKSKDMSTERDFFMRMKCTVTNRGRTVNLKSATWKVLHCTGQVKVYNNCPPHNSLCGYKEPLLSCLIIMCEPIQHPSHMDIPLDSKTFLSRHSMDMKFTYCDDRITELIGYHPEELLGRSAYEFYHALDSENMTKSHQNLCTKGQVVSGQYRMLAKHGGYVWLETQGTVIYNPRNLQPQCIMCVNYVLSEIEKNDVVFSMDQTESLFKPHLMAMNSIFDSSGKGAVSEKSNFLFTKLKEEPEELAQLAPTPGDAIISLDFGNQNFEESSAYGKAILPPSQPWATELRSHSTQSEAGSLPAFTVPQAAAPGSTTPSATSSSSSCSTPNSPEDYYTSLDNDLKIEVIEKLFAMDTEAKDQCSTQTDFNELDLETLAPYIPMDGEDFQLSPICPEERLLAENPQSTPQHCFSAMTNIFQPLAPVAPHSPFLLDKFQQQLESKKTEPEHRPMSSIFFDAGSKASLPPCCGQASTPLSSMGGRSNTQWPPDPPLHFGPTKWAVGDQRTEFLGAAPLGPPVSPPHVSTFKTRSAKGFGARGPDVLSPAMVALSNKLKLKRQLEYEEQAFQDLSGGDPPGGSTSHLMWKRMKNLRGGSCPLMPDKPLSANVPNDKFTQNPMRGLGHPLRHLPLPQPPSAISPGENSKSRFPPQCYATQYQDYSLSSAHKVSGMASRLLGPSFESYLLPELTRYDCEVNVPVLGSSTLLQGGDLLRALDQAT
human ether-à-go-go-related gene (hERG) channel, sequence (Q12809 whole entry): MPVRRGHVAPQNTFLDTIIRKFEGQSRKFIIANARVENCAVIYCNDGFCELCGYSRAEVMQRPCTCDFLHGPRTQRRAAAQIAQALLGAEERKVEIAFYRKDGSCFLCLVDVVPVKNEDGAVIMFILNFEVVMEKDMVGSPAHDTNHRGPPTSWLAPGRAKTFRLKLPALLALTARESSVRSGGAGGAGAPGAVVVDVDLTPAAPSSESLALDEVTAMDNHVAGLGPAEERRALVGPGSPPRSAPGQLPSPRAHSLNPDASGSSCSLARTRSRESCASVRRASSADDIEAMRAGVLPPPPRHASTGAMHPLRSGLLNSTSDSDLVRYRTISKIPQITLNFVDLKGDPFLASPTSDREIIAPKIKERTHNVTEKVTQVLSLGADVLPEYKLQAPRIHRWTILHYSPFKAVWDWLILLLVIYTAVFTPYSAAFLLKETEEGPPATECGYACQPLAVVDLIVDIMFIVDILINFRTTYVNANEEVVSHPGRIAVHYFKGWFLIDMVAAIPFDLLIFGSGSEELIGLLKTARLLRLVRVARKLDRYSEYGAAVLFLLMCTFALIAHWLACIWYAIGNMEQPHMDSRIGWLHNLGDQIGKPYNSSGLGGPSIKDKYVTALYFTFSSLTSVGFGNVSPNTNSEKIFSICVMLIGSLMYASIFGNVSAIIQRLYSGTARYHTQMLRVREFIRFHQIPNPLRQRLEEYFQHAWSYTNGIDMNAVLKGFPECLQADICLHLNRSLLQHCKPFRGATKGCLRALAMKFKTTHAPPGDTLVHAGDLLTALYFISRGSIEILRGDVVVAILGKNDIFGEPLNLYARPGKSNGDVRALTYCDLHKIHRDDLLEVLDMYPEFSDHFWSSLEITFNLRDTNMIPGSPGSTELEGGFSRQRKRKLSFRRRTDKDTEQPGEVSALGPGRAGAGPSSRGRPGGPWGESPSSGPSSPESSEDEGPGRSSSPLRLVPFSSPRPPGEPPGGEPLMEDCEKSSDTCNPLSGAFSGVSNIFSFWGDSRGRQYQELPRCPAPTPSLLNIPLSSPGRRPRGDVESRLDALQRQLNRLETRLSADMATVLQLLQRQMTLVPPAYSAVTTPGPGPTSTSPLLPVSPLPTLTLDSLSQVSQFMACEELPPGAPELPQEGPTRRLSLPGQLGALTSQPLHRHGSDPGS

inhibition at 2.5 µM ([1]; 786-0, 786-O cells, 2.5 uM): 65 to 77% | HRE-Luc (of control) ([1]; 786-O cells, 2.5 uM): 0.31 | HRE luciferase activity (HIF activity), result in words ([1]; 24 h): potent HIF α inhibitors
Molecule: CC[N+](C)(CC)CCOC(=O)C1c2ccccc2Oc2ccccc21 [Methantheline]
SV40-Luc (of control) [2]: 0.86 | SV40-Luc (of control) ([2]; listed as methantheline): without clear toxicity

Molecule: hydroxyethylapoquinine [HEAQ]
PH (RVSP) ([3]; MCT rats, HEAQ 20 mg/kg oral daily for 14 days from 14 days post-MCT): attenuate PH; also recorded: markedly reduced RVSP | HRE luciferase activity (HIF activity), result in words ([1]; 24 h): could inhibit HIF activity as efficiently as Quinidine | IC50 [4]: > 90 µM

Molecule: CCOc1ccc2nc3cc(N)ccc3c(N)c2c1 [Ethacridine, 7-ethoxyacridine-3,9-diamine]
SDF1 expression (control = 1.00) ([5]; 20 & 30 uM, DMOG alone 1.80 ± 0.06): 12.9 ± 8.1 | SDF1 expression (control = 1.00) ([5]; 20 & 30 uM, DMOG alone 1.80 ± 0.06, listed as ethacridine): induced SDF-1 expression | PDGF-B expression (control = 1.00) ([6]; 20 & 30 uM, DMOG alone 2.05 ± 0.33): 0.52 ± 0.31 | PDGF-B expression (control = 1.00) ([6]; 20 & 30 uM, DMOG alone 2.05 ± 0.33, listed as ethacridine): markedly inhibited | PH (RVSP) ([3]; MCT rats, ethacridine alone 7.5 mg/kg i.p. twice a day, 14 days): didn't inhibit PH | Endothelin-1 expression (control = 1.00) ([7]; 20 & 30 uM, DMOG alone 2.36 ± 0.23): 0.12 ± 0.07 | Endothelin-1 expression (control = 1.00) ([7]; 20 & 30 uM, DMOG alone 2.36 ± 0.23, listed as ethacridine): markedly inhibited | inhibition at 2.5 µM ([1]; 786-0, 786-O cells, 2.5 uM): 70% | inhibition at 5 µM ([1]; 786-0, 786-O cells, 5 uM, 24 h, read-out: inhibition of HRE activity, i.e., HIF activity): ~80% | HRE luciferase activity (HIF activity), result in words ([1]; 24 h): potent HIF α inhibitors

Molecule: CC(C)[N+](C)(CCOC(=O)C1c2ccccc2Oc2ccccc21)C(C)C.[Br-] [Propantheline]
SDF1 expression (control = 1.00) ([5]; 40 uM, DMOG alone 1.80 ± 0.06): 0.53 ± 0.37 | SDF1 expression (control = 1.00) ([5]; 40 uM, DMOG alone 1.80 ± 0.06, listed as propantheline): mainly inhibited SDF-1 expression | PDGF-B expression (control = 1.00) ([6]; 40 uM, DMOG alone 2.05 ± 0.33): 1.55 ± 0.44 | Endothelin-1 expression (control = 1.00) ([7]; 40 uM, DMOG alone 2.36 ± 0.23): 1.70 ± 0.45

inhibition at 2.5 µM ([1]; 786-0, 786-O cells, 2.5 uM): 65 to 77% | HRE-Luc (of control) ([1]; 786-O cells, 2.5 uM): 0.23 | HRE luciferase activity (HIF activity), result in words ([1]; 24 h): potent HIF α inhibitors
Molecule: CCc1c2c(nc3ccc(OC(=O)N4CCC(N5CCCCC5)CC4)cc13)-c1cc3c(c(=O)n1C2)COC(=O)[C@]3(O)CC [Irinotecan, [(19S)-10,19-diethyl-19-hydroxy-14,18-dioxo-17-oxa-3,13-diazapentacyclo[11.8.0.0^2,11.0^4,9.0^15,20]henicosa-1(21),2,4(9),5,7,10,15(20)-heptaen-7-yl] 4-piperidin-1-ylpiperidine-1-carboxylate; hydrochloride]
SV40-Luc (of control) ([2]; hydrochloride): 0.99 | SV40-Luc (of control) ([2]; listed as irinotecan, hydrochloride): without clear toxicity

Molecule: C=C[C@H]1C[N@]2CC[C@H]1C[C@@H]2[C@@H](O)c1ccnc2ccc(OC)cc12 [Quinidine, (2-Ethenyl-4-azabicyclo[2.2.2]oct-5-yl)-(6-methoxyquinolin-4-yl)-methanol]
HIF-2α protein level [8]: didn't inhibit expression | expression of HIF-2α downstream target genes in lungs ([3]; MCT rat lungs, quantitative RT-PCR, quinidine vs vehicle): normalized or markedly inhibited; also recorded: suppressed HIF-2α activation in MCT-rat lungs | muscularization of distal pulmonary arteries (<75 μm) [3, 9]: markedly attenuated; also recorded: Marked decrease in muscularization of distal pulmonary arterioles | pulmonary artery wall thickening (pulmonary vascular remodeling) [3, 9]: markedly attenuated; also recorded: reversed pulmonary vascular remodeling | survival, result in words ([3]; MCT rats, Log-rank test): promoted survival | PH (RVSP) ([3]; MCT rats, quinidine alone 10 mg/kg oral twice a day, 14 days): didn't inhibit PH | RV contractility [3, 10]: Improved RV contractility | RV wall thickness (echocardiography) [3, 10]: decreased RV wall thickness; also recorded: reduction in RV wall thickness | RV hypertrophy [3, 11]: marked decrease; also recorded: reduced | right ventricular systolic pressure (RVSP) [3, 11]: marked decrease; also recorded: reduced RVSP | survival rate ([3]; day 28 post-MCT challenge with a lethal dose, all vehicle rats had died): 90% | inhibition at 20 µM ([1]; 786-0, 786-O cells, 20 uM): ~70% | HRE luciferase activity (HIF activity), result in words ([1]; 24 h): repressed HRE luciferase (Luc) activity in a dose-dependent manner | HRE luciferase activity (HIF activity), result in words ([1]; 24 h, listed as quinidine): inhibition of HRE/luciferase activity in a dose-dependent manner | control SV40 luciferase activity (cell toxicity), result in words [2]: didn't repress control SV40 luciferase activity | control SV40 luciferase activity (cell toxicity), result in words ([2]; listed as quinidine): without obvious toxicity

HRE-Luc (of control) ([1]; 786-O cells, 1.25 uM): 0.34 | HRE luciferase activity (HIF activity), result in words ([1]; 24 h): potent HIF α inhibitors
Molecule: COc1cc([C@@H]2c3cc4c(cc3[C@@H](O[C@@H]3O[C@@H]5CO[C@@H](C)O[C@H]5[C@H](O)[C@H]3O)[C@H]3COC(=O)[C@H]23)OCO4)cc(OC)c1O [Etoposide, (5S,5aR,8aR,9R)-5-[[(2R,4aR,6R,7R,8R,8aS)-7,8-dihydroxy-2-methyl-4,4a,6,7,8,8a-hexahydropyrano[3,2-d][1,3]dioxin-6-yl]oxy]-9-(4-hydroxy-3,5-dimethoxyphenyl)-5a,6,8a,9-tetrahydro-5H-[2]benzofuro[6,5-f][1,3]benzodioxol-8-one]
SDF1 expression (control = 1.00) ([5]; 20 & 40 uM, DMOG alone 1.80 ± 0.06): 1.25 ± 0.80 | PDGF-B expression (control = 1.00) ([6]; 20 & 40 uM, DMOG alone 2.05 ± 0.33): 0.77 ± 0.37 | PDGF-B expression (control = 1.00) ([6]; 20 & 40 uM, DMOG alone 2.05 ± 0.33, listed as etoposide): markedly inhibited | Endothelin-1 expression (control = 1.00) ([7]; 20 & 40 uM, DMOG alone 2.36 ± 0.23): 0.47 ± 0.50 | Endothelin-1 expression (control = 1.00) ([7]; 20 & 40 uM, DMOG alone 2.36 ± 0.23, listed as etoposide): markedly inhibited
